In patent US20170045513A1, “METHODS OF DIAGNOSING CELIAC DISEASE USING IP-10” (ImmusanT, Inc., priority 2014, published 2017):
Non-standard residues stand in square brackets, D forms with d. pGlu = O=C1CC[C@@H](C(=O)O)N1

What was measured:
Type in all cases: cell-based, human
gluten-reactive T cells [1] = assay: Overnight IFNγ ELISpot assay with fresh PBMC; details: for Percent of maximal response to individual gluten peptides, ELISp: after oral gluten challenge; for IFNγ ELISpot % max Mean: n = 5, blood after oral gluten challenge, individual peptides 5 μM (Peptide 2* of P14, Pepscan: 10 μg/mL (5.45 μM))
Method: HLA-DQ2.5-positive celiac disease subjects on gluten-free diet were used in this study. Blood was collected immediately before and 6 days after commencing 3-day oral gluten challenge. Whole blood or PBMCs were incubated with pools or single peptides derived from gluten or recall antigens. IFNγ and IP-10 levels were measured in plasma from the whole blood that was incubated in 96-well plates with peptides or peptide pools. Plasma cytokine/chemokine levels were measured by MAGPIX® multiplex bead assay (IFNγ and IP-10) or by ELISA (IFNγ and IP-10), and PBMC separated from the same blood sample were incubated in overnight IFNγ ELISpot assays.
Overnight IFNγ ELISpot assays (Human IFN-γ ELISpotPRO kit, transparent, ALP; Mabtech AB, #3420-2APT-10) were performed using PBMC freshly separated from heparinized blood diluted 1:1 in PBS with 2% fetal bovine serum (Stemcell Technologies #07905; Vancouver, BC, V5Z 1B3, Canada) overlaid on density gradient medium (Ficoll-Paque™ PLUS; GE Healthcare Lice Sciences #:17-1440-02) in SepMate™-50 tubes (Stemcell Technologies #15460). PBMC (8 million/mL) were resuspended in serum-free medium with gentamicin and phenol red (X-VIVO™15; Lonza, Walkersville Mass. 21793). PBMC (0.4 million/50 pt/well) and incubated with 50 μL 80% X-vivo15, 0.2% DMSO and 20% PBS in three triplicate wells (“medium only”), or with 50 μL PHA-L 20 μg/ml or peptide at 2× final concentration in 80% X-vivo15, 0.2% DMSO and 20% PBS. Peptide solutions to be added to individual ELISpot wells were prepared in 96-well U-bottom plates (60 pt/well) that were then sealed with adhesive ELISA plate cover slips before replacing the plastic lid and being frozen at −80° C. 96-well plates containing peptide solutions were thawed at room temperature for 10 min while being centrifuged at 300 g immediately prior to being added to ELISpot wells. Peptide pools and mitogen were assessed in triplicate wells, and individual peptides were assessed in duplicate wells. X-VIVO™15 (50 μL) was incubated with 80% X-vivo15, 0.2% DMSO and 20% PBS (50 μL) in triplicate wells (“no PBMC” control). A Zeiss automated ELISpot counter was used to determine spot forming units (SFU) per well (Zellnet Inc., Fort Lee, N J 07024). Laboratory staff were unaware of the arrangement of peptide solutions in ELISpot wells during assay setup and plate counting.

gluten-reactive T cells [2] = assay: 96-well plate whole blood cytokine release, IFNγ by MAGPIX multiplex bead assay; details: for Percent of maximal response to individual gluten peptides, IFNg: after oral gluten challenge; for IFNγ WB MAGPIX % max Mean: n = 8, blood after oral gluten challenge, individual peptides 5 μM (Peptide 2* of P14, Pepscan: 10 μg/mL (5.45 μM))
gluten-reactive T cells [3] = assay: Cytokine release assays taken together (IFNγ ELISpot, whole blood IFNγ and IP-10, in-tube IFNγ ELISA)
Method: Gluten peptide solutions for addition to whole blood were arranged according to standardized templates in sterile 96-well U-bottom plates (30 μL/well). Plates were sealed with adhesive ELISA plate cover slips before the plastic lid was replaced and being frozen at −80° C. Whole blood assay (WBA) “medium” (1% DMSO in 90% PBS and 9% normal saline), mitogen (PHA-L, Sigma-Aldrich #L2769; St Louis Mo.) 100 μg/ml in WBA medium, and CEF diluted to 10 μg/ml in PBS with a final concentration of 1% DMSO were frozen separately in sterile cryovials. 96-well plates and cryovials with frozen incubation solutions were shipped on dry ice to the clinical site where blood was collected and incubations performed. Solutions were thawed at room temperature for 10 min just before being added to whole blood. 96-well plates were thawed while being centrifuged at 300 g to avoid surface condensation. A multi-channel pipette was used to efficiently transfer 25 μL of peptide solutions from the original 96-well plate to corresponding wells in a fresh sterile 96-well U-bottom plate. Once incubation solutions had been added, 225 μL of whole blood was added to each well and the plate transferred to incubate for 24 h at 37° C. 5% CO2. […] Individual peptides were incubated at a final assay concentration of 51.1M. Final concentrations of individual peptides assessed in P3 was 0.05-50 μg/mL, and in P14 and P13 pools 0.025-25 μM. The P71 pool was tested at between 0.005-10 pg/mL, the highest tested concentration being the maximal possible not exceeding 0.1% DMSO. Peptide pools, mitogen, and medium only were assessed in triplicate wells, and on Day-6 individual peptides were assessed in duplicate wells. Incubations were terminated after 24 h, and 96-well plates centrifuged at 300 g for 10 min. A total of approximately 90 to 120 μL of plasma was removed from each well taking care to avoid red cell contamination, and transferred into corresponding wells of two further 96-well plates (one with 30 μL/well and the residual in the second plate). Plasmas were frozen at −80° C. and later shipped on dry ice to the central lab where IP-10 and IFNγ multiplex bead assays were performed according to manufacturer's instructions using 25 μL plasma per well (Milliplex® MAP Human Cytokine/Chemokine Magnetic Bead Panel #HCYTOMAG-60k-02; EMD Millipore Corp., Billerica, Mass. 01821) and analysed with the Luminex® MAGPIX® System xPONENT® software (Luminex Corporation, Austin Tex. 78727). Plasma cytokine levels for each assay condition were expressed as the mean analyte concentration of each of the three replicate incubations. Laboratory staff were unaware of the arrangement of peptide solutions incubated with during assay setup and plate counting.
Aliquots of PBS, P3 peptides diluted in PBS (final concentration in blood 3× 50 or CEF to a final concentration 1 μg/mL were prepared in sterile cryovials (0.11 mL/vial) and stored frozen (−80° C.) until immediately before use. P3, CEF and two PBS aliquots were drawn up in separate sterile 0.3 mL insulin syringes with attached 29G×½″ needle (Terumo, SS*30M2913; Elkton Md. 21921). P3, CEF and one PBS aliquot was injected through the stoppers of three separate QuantiFERON® NIL tubes already containing 1 mL blood, and one aliquot of PBS was injected into a QuantiFERON® MITOGEN tube already containing 1 mL blood. All four tubes containing blood and incubation solution were gently inverted ten-times and transferred to incubate at 37° C. 5% CO2. After for 24 h, tubes were centrifuged 300 g 10 min. Plasma was separated and equal volumes placed in two 1.5 mL cryovials. Frozen plasmas were transferred to the central lab where IFNγ levels were measured in triplicate 50 μL samples by ELISA (MABtech Human IFN-γ ELISA development kit HRP, 3420-1H-6; capture mAb 1-D1K). […]

[4] = blood collected after oral gluten challenge

Substance | Percent of maximal response to individual gluten peptides, ELISp (gluten-reactive T cells [1]; Subject 3, Max. 18 SFU) | Percent of maximal response to individual gluten peptides, ELISp (gluten-reactive T cells [1]; Subject 4, Max. 36 SFU) | Percent of maximal response to individual gluten peptides, ELISp (gluten-reactive T cells [1]; Subject 6, Max. 16 SFU) | Percent of maximal response to individual gluten peptides, ELISp (gluten-reactive T cells [1]; Subject 8, Max. 17 SFU) | Percent of maximal response to individual gluten peptides, ELISp (gluten-reactive T cells [1]; Subject 10, Max. 11 SFU) | IFNγ ELISpot % max Mean (gluten-reactive T cells [1]) | Percent of maximal response to individual gluten peptides, IFNg (gluten-reactive T cells [2]; Subject 2, Max. 116 pg/mL) | Percent of maximal response to individual gluten peptides, IFNg (gluten-reactive T cells [2]; Subject 3, Max. 799 pg/mL) | Percent of maximal response to individual gluten peptides, IFNg (gluten-reactive T cells [2]; Subject 4, Max. 136 pg/mL) | Percent of maximal response to individual gluten peptides, IFNg (gluten-reactive T cells [2]; Subject 6, Max. 72 pg/mL) | Percent of maximal response to individual gluten peptides, IFNg (gluten-reactive T cells [2]; Subject 7, Max. 17 pg/mL) | Percent of maximal response to individual gluten peptides, IFNg (gluten-reactive T cells [2]; Subject 8, Max. 47 pg/mL) | Percent of maximal response to individual gluten peptides, IFNg (gluten-reactive T cells [2]; Subject 9, Max. 67 pg/mL) | Percent of maximal response to individual gluten peptides, IFNg (gluten-reactive T cells [2]; Subject 10, Max. 229 pg/mL) | IFNγ WB MAGPIX % max Mean (gluten-reactive T cells [2]) | activity relative to Peptide 14 in the cytokine release assays (gluten-reactive T cells [3]; [4]) | rank of activity among individual gluten peptides (gluten-reactive T cells [3]; [4]) | cytokine release / immunogenicity of individual peptide (gluten-reactive T cells [3]; HLA-DQ2.5+ celiac disease subjects after gluten challenge)
(pE)LQPFPQPELPYPQPQ-amide ([pGlu]LQPFPQPELPYPQPQ-NH2; SMILES CC(C)C[C@H](NC(=O)[C@@H]1CCC(=O)N1)C(=O)N[C@@H](CCC(N)=O)C(=O)N1CCC[C@H]1C(=O)N[C@@H](Cc1ccccc1)C(=O)N1CCC[C@H]1C(=O)N[C@@H](CCC(N)=O)C(=O)N1CCC[C@H]1C(=O)N[C@@H](CCC(=O)O)C(=O)N[C@@H](CC(C)C)C(=O)N1CCC[C@H]1C(=O)N[C@@H](Cc1ccc(O)cc1)C(=O)N1CCC[C@H]1C(=O)N[C@@H](CCC(N)=O)C(=O)N1CCC[C@H]1C(=O)N[C@@H](CCC(N)=O)C(N)=O) [Peptide 1] | 11 % of max | 22 % of max | 25 % of max | 0 % of max | 9 % of max | 13 % max | 100 % of max | 14 % of max | 26 % of max | 25 % of max | 43 % of max | 6 % of max | 43 % of max | 7 % of max | 33 % max | no more than two-thirds as active as Peptide 14 | the most active of this group of related peptides | –
(pE)PEQPEQPFPEQPQQ-amide ([pGlu]PEQPEQPFPEQPQQ-NH2; SMILES NC(=O)CC[C@H](NC(=O)[C@H](CCC(N)=O)NC(=O)[C@@H]1CCCN1C(=O)[C@H](CCC(N)=O)NC(=O)[C@H](CCC(=O)O)NC(=O)[C@@H]1CCCN1C(=O)[C@H](Cc1ccccc1)NC(=O)[C@@H]1CCCN1C(=O)[C@H](CCC(N)=O)NC(=O)[C@H](CCC(=O)O)NC(=O)[C@@H]1CCCN1C(=O)[C@H](CCC(N)=O)NC(=O)[C@H](CCC(=O)O)NC(=O)[C@@H]1CCCN1C(=O)[C@@H]1CCC(=O)N1)C(N)=O) [Peptide 11] | 0 % of max | 3 % of max | 6 % of max | 6 % of max | 0 % of max | 3 % max | 0 % of max | 0 % of max | 0 % of max | 0 % of max | 0 % of max | 0 % of max | 0 % of max | 0 % of max | 0 % max | – | – | weak or not distinguishable from medium alone
(pE)PEQPFPEQPIPEQPQPYP-amide ([pGlu]PEQPFPEQPIPEQPQPYP-NH2; SMILES CC[C@H](C)[C@H](NC(=O)[C@@H]1CCCN1C(=O)[C@H](CCC(N)=O)NC(=O)[C@H](CCC(=O)O)NC(=O)[C@@H]1CCCN1C(=O)[C@H](Cc1ccccc1)NC(=O)[C@@H]1CCCN1C(=O)[C@H](CCC(N)=O)NC(=O)[C@H](CCC(=O)O)NC(=O)[C@@H]1CCCN1C(=O)[C@@H]1CCC(=O)N1)C(=O)N1CCC[C@H]1C(=O)N[C@@H](CCC(=O)O)C(=O)N[C@@H](CCC(N)=O)C(=O)N1CCC[C@H]1C(=O)N[C@@H](CCC(N)=O)C(=O)N1CCC[C@H]1C(=O)N[C@@H](Cc1ccc(O)cc1)C(=O)N1CCC[C@H]1C(N)=O) [Peptide 14] | 100 % of max | 100 % of max | 100 % of max | 100 % of max | 100 % of max | 100 % max | 53 % of max | 100 % of max | 100 % of max | 100 % of max | 99 % of max | 100 % of max | 98 % of max | 100 % of max | 94 % max | – | most active | –
